# Measured values: patent US20240101963A1, “SC-BETA CELLS AND COMPOSITIONS AND METHODS FOR GENERATING THE SAME” (President and Fellows of Harvard College, priority 2013, published 2024)
# Columns and labels:
# Type in all cases: cell-based, human
# SC-β cells [1] = experiment: Insulin secretion of plated SC-β cells treated with anti-diabetic drugs in 2 and 20 mM glucose; conditions: SC-β cells treated with drug; trend
# Method: FIG. 16A is a schematic illustration of the utility of SC-β cells for treating diabetes or screening drugs to improve function or replication. FIG. 16B is a table listing diabetic drugs investigated and their general therapeutic category. FIG. 16C is a graph showing ELISA measurements of secreted human insulin from plated SC-β cells treated with the indicated drugs in 2 and 20 mM glucose. Indicated p values compare the insulin value in 20 mM glucose between the drug and the control. FIG. 16D is an immunofluorescence image of dispersed and plated SC-β cells stained with DAPI (blue), C-peptide (green), and Ki67 (red) without treatment. FIG. 16E is an immunofluorescence image of dispersed and plated SC-β cells stained with DAPI (blue), C-peptide (green), and Ki67 (red) treated with prolactin for 48 hours. […] FIG. 16G is a graph illustrating fasting blood glucose measurements of Akita mice transplanted with SC-β cells (n=6) or PH cells (n=6). *p<0.05 comparing the two cell groups on the same day. FIG. 16H is a graph illustrating blood glucose measurements from progressively diabetic Akita mice transplanted with SC-β cells or PH cells. Measurements were taken before (white bars) and 20 min after (black bars) a glucose injection of mice transplanted 2 weeks prior. Glucose measurements were saturated at 550 mg/dL. *p<0.05 comparing the two cell groups at the same time post glucose injection. FIG. 16I is a graph showing ELISA measurements of human insulin from the serum of Akita mice 20 min after a glucose injection. Mice were challenged with glucose 2 weeks post transplantation. *p<0.05 comparing the two cell groups. Scale bar=50 μm.
# The inventors first tested whether SC-β cells could respond to existing anti-diabetic drugs from several different classes (FIG. 16B). LY2608204 is glucokinase activator in clinical trials while liraglutide, tolbutamide, and nateglinide are examples of GLP-1 agonists and secretagogues (sulfonylureas and meglitinides), respectively, that have been used clinically (Matschinsky, 2009; Modi, 2007; Vetere et al., 2014).
# hPSC = experiment: Modified differentiation protocol Steps 3-6: cell survival and marker expression; conditions: for cell survival: Steps 3-5
# From the text: (Watanabe, K. et al., Nature Biotechnology 25, 681-686 (2007)).
# (Watanabe et al.) Examples of Rock inhibitors include, but are not limited to, Y-27632, Fasudil/HA1077, and H-1152.
# In addition to treating the cells with a Rocki inhibitor, the cells in Steps 3-4 can be treated with ActivinA alone or in combination with Nicotinamide.
# Staurosporine is known to be an activator of neuronal, glial, and stem cell-like neurosphere differentiation and is also thought to induce apoptosis. (Schumacher, et al., Mol. Cell. Neurosci. 2003; 23(4): 669-680).
# SC-β cells [2] = experiment: GSIS of SC-β cells after adding additional factors to CMRL media at last differentiation step (Stage 6); conditions: factor added to CMRL media containing Alk5 inhibitor and T3; versus CMRL only, CMRL+Alk5i+T3 or S3+Alk5i+T3
# From the text: To induce the in vitro maturation of at least some of the Pdx1-positive, NKX6-1-positive, insulin-positive endocrine cells into SC-β cells, the Pdx1-positive, NKX6-1-positive, insulin-positive endocrine cells are maintained in a suitable culture medium for a sufficient period of time. […] Adding additional factors to the CMRL media at the last step of differentiation (Stage 6) (FIG. 14A), however, was also found to generate a better glucose stimulated insulin secretion (GSIS) response by SC-β cells as measured by either stimulation index between high and low glucose challenges or by the amount of insulin released. Such additional factors may include, but are not limited to, Sant1, XXI, and SSP. The stimulation index, as calculated by the ratio of insulin secreted in high glucose (15 mM) to low glucose (2.5 mM), was greater for the SC-β cells maintained in a CMRL media containing Alk5 inhibitor, T3 hormone and either Sant1, XXI or SSP than those SC-β cells maintained in only CMRL media, CMRL media containing Alk5 inhibitor and T3 hormone, or S3 media containing Alk5 inhibitor and T3 hormone (FIG. 14B). Furthermore, the amount of insulin secreted was greater for the SC-β cells maintained in a CMRL media containing Alk5 inhibitor, T3 hormone and either Sant1, XXI or SSP than those SC-β cells maintained in only CMRL media, CMRL media containing Alk5 inhibitor and T3 hormone, or S3 media containing Alk5 inhibitor and T3 hormone (FIG. 14C).
# Alternatively, Days 21-35: CMRLS+10 μM Alk5i II+1 μM T3+Sant1.
# Alternatively, Days 21-35: CMRLS+10 μM Alk5i II+1 μM T3+XXI.
# Alternatively, Days 21-35: CMRLS+10 μM Alk5i II+1 μM T3+SSP.
# SC-β cells [3] = experiment: β cell replication: C-peptide/Ki67 staining of SC-β cells; conditions: SC-β cells cultured with prolactin (48 hours); untreated 0.20±0.08%
# From the text: Next the inventors tested whether SC-β cells could model β cell replication. Increasing a patient's β cell mass may improve glycemic control by producing more insulin in total without needing to increase the amount of insulin produced per β cell. To date, few if any drugs that have promoted β cell replication in rodent or cell line models have been translated to human β cells. […] The inventors tested whether treatment with prolactin could increase β cell replication in a SC-β cell population. After culturing SC-β cells with prolactin, cells were stained and fixed for C-peptide and the proliferation marker Ki67 (FIGS. 16D and 16E). Like primary human β cells, the baseline number of Ki67+ proliferating SC-β cells was very low (0.20±0.08% Ki67+/C-peptide+) (FIG. 16F).
# Cells were dispersed and plated onto 96 well plates. After one day of culture, cells were washed in PBS and fixed in 4% PFA for 20 min at RT. Following 3 washes with PBS, cells were blocked for 1 hour at RT in PBS+0.1% Triton X-100+5% donkey serum. […] The percentage of target cell-types was quantified using the Array Scan Cellomics high-content screening system. Here 30 images were acquired per well and quantified. Cells labeled by antibody staining and total cell number (based on DAPI nuclei staining) were quantified to obtain percentages of target cell types.
Molecule,insulin secretion in vitro following a glucose challenge (SC-β cells [1]),amount of insulin secreted (SC-β cells [2]),"stimulation index, ratio of insulin secreted in high glucose (15 mM) to low glucose (2.5 mM) (SC-β cells [2])",further results
O=C(Nc1ncc(SCCN2CCCC2)s1)[C@]1(c2ccc(S(=O)(=O)C3CC3)cc2)C[C@H]1C1CCCCC1 [LY2608204],increasing insulin secretion,–,–,–
NC(=O)c1cccnc1 [Nicotinamide],–,–,–,cell survival (hPSC): improve cell survival
Cc1nn(-c2ccccc2)c(C)c1/C=N/N1CCN(Cc2ccccc2)CC1 [Sant1],–,greater,greater,–
C[C@H](NC(=O)Cc1cc(F)cc(F)c1)C(=O)N[C@H]1N=C(c2ccccc2)c2ccccc2N(C)C1=O [XXI],–,greater,greater,NeuroD1+ population (hPSC; XXI added to medium with Alk5i and T3 at Steps 5 and 6): increase
CC(C)[C@H]1CC[C@H](C(=O)N[C@H](Cc2ccccc2)C(=O)O)CC1 [nateglinide],increasing insulin secretion,–,–,–
CN[C@@H]1C[C@H]2O[C@@](C)([C@@H]1OC)n1c3ccccc3c3c4c(c5c6ccccc6n2c5c31)C(=O)NC4 [staurosporine],–,greater,greater,percentage of ChromograninA (hPSC; Steps 5-6): increasing; percentage of NKX6-1.C-peptide+ cells (hPSC; Steps 5-6): increasing
CCCCNC(=O)NS(=O)(=O)c1ccc(C)cc1 [tolbutamide],increasing insulin secretion,–,–,–
"prolactin: hormone tested for increasing β cell replication (protein, UniProt P01236 29-227, looked up) Prolactin: LPICPGGAARCQVTLRDLFDRAVVLSHYIHNLSSEMFSEFDKRYTHGRGFITKAINSCHTSSLATPEDKEQAQQMNQKDFLSLIVSILRSWNEPLYHLVTEVRGMQEAPEAILSKAVEIEEQTKRLLEGMELIVSQVHPETKENEIYPVWSGLPSLQMADEESRLSAYYNLLHCLRRDSHKIDNYLKLLKCRIIHNNNC",–,–,–,Ki67+/C-peptide+ cells after prolactin treatment (SC-β cells [3]): 0.39±0.08%
"Activin A: growth factor from the TGF-β superfamily (protein, UniProt P08476 311-426, looked up, Inhibin beta A chain, growth factor from the TGF-β superfamily) Inhibin beta A chain: GLECDGKVNICCKKQFFVSFKDIGWNDWIIAPSGYHANYCEGECPSHIAGTSGSSLSFHSTVINHYRMRGHSPFANLKSCCVPTKLRPMSMLYYDDGQNIIKKDIQNMIVEECGCS",–,–,–,cell survival (hPSC): improve cell survival
